From patent US10927126B2, “Positive allosteric modulators of the muscarinic acetylcholine receptor M4” (Vanderbilt University, priority 2016, dated 2021)
Where a name gives a salt, the structure may show the parent alone.

Legend:
Human M4 = biological target: T1, Human M4 (Homo sapiens, UniProt P08173); assay: mAChR M4 cell-based functional assay (calcium flux, potentiation of EC20 acetylcholine response); set-up: Emax: dose or concentration left out as unconfirmed
T1 sequence (P08173 1-479): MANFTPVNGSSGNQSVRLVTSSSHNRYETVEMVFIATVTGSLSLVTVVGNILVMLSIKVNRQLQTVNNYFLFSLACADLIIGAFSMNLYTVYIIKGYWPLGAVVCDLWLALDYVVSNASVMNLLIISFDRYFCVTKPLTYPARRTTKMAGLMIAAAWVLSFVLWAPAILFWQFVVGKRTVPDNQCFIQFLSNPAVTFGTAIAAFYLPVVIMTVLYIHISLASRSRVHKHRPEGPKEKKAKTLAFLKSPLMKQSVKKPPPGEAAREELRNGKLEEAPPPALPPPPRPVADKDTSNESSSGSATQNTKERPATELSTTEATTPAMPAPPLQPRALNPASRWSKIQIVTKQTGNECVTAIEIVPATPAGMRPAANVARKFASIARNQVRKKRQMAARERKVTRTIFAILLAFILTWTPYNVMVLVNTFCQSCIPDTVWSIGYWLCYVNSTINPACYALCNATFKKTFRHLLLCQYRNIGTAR

[1] = patients treated with AChE inhibitor; cited from earlier work
[2] = Alzheimer's disease patients; cited from earlier work
[3] = similar profiles to known antipsychotic drugs, without causing catalepsy; cited from earlier work

Row | SMILES | EC50 (Human M4) [nM] | Emax (Human M4) [%] | patients with elevated liver transaminases [1] | effect on psychotic behavioral symptoms such as delusions, suspiciousness, vocal outbursts, and hallucinations [2] | activity in animal models [3]
1 | Cc1nnc2sc3c(NCc4ccc(OCC5CC5)c(F)c4)nccc3c2c1C [Compound 18, N-[[4-(cyclopropylmethoxy)-3-fluoro-phenyl]methyl]-3,4-dimethyl-pyrido[4′,3′:4,5]thieno[2,3-c]pyridazin-8-amine hydrochloride] | 679 | 88.6 | – | – | –
2 | Nc1c2c(nc3ccccc13)CCCC2 [tacrine] | – | – | about 30% | – | –
3 | Cc1nnc2sc3c(NCc4ccc(C(F)(F)F)c(F)c4)nccc3c2c1C [Compound 17, N-[[3-fluoro-4-(trifluoromethyl)phenyl]methyl]-3,4-dimethyl-pyrido[4′,3′:4,5]thieno[2,3-c]pyridazin-8-amine hydrochloride] | 1720 | 66.6 | – | – | –
4 | CCCCCCOc1nsnc1C1=CCCN(C)C1 [xanomeline] | – | – | – | reduce psychotic behavioral symptoms | active in animal models
5 | Cc1nnc2sc3c(NC4CN(c5ncc(C(F)(F)F)cn5)C4)nccc3c2c1C [Compound 10, 3,4-dimethyl-N-[1-[5-(trifluoromethyl)pyrimidin-2-yl]azetidin-3-yl]pyrido[4′,3′:4,5]thieno[2,3-c]pyridazin-8-amine hydrochloride] | 67.1 | 74.4 | – | – | –

Now from value to compound, other results behind:

Row | EC50 (Human M4) [nM] | Emax (Human M4) [%] | SMILES | patients with elevated liver transaminases [1] | effect on psychotic behavioral symptoms such as delusions, suspiciousness, vocal outbursts, and hallucinations [2] | activity in animal models [3]
6 | 1540 | 72.9 | Cc1nc2sc3c(NCc4ccc(C(C)(C)O)cc4)nccc3c2c(C)c1Cl [Compound 29, 2-(4-(((3-chloro-2,4-dimethylthieno[2,3-b:5,4-c′]dipyridin-8-yl)amino)methyl)phenyl)propan-2-ol] | – | – | –
7 | 23.6 | 91.4 | Cc1c(Cl)nnc2sc3c(NC4CCC4)nccc3c12 [Compound 34, 3-chloro-N-cyclobutyl-4-methylpyrido[4′,3′:4,5]thieno[2,3-c]pyridazin-8-amine] | – | – | –
8 | 25.4 | 101 | Cc1c(Cl)nnc2sc3c(N4CCCC4)nccc3c12 [Compound 35, 3-chloro-4-methyl-8-(pyrrolidin-1-yl)pyrido[4′,3′:4,5]thieno[2,3-c]pyridazine] | – | – | –
9 | 351 | 36.5 | Cc1nnc2sc3c(N4CCCC4)ncc(Cl)c3c2c1C [Compound 23, 5-Chloro-3,4-dimethyl-8-pyrrolidin-1-yl-pyrido[4′,3′:4,5]thieno[2,3-c]pyridazine Hydrochloride] | – | – | –
10 | 2630 | 76.6 | Cc1nc2sc3c(NCc4ccc(C(C)(C)O)c(F)c4)nccc3c2c(C)c1Cl [Compound 31, 2-(4-(((3-chloro-2,4-dimethylthieno[2,3-b:5,4-c′]dipyridin-8-yl)amino)methyl)-2-fluorophenyl)propan-2-ol] | – | – | –
